Structures are written as SMILES. Structures can show the parent of a compound that is named as a salt.

Series [1] addresses T1, (recombinant) catalytic domain of human Bub1 (amino acids 704-1085) (Homo sapiens, UniProt O43683).
T1 construct: catalytic domain of human Bub1 (amino acids 704-1085); 6xHis (N); made in house; host or cells: Hi5 insect cells
Briefly: Bub1 kinase assay (TR-FRET). It counts as biochemical. In general terms: Time-resolved FRET reads energy transfer from a long-lived donor to a nearby acceptor.

The subject of series [2] is HeLa human cervical tumor cells. As to the kind of experiment: Proliferation assay (HeLa cell line). To be noted: 96 h, 4 days incubation, crystal violet, read-out: Biological Assay 2: Proliferation assay (HeLa cell line) median IC50. It counts as cell-based. An excerpt: Human tumour cells were originally obtained from the American Type Culture Collection (ATCC), the Deutsche Sammlung von Mikroorganismen und Zellkulturen (DSMZ, German Collection of Microorganisms and Cell Cultures), or Epo GmbH Berlin.

Series [3] shares this test system. As to the kind of experiment: Proliferation Assay (HeLa + Paclitaxel). It counts as cell-based. The note with it: 3 nM paclitaxel, test substance 92 hours; read-out: Biological Assay 3: Proliferation Assay (HeLa + Paclitaxel) IC50. The text has this:
Proliferation Assay (HeLa+Paclitaxel):

Series [4] deals with histone 2A phosphorylation (kinase activity of Bub1). Briefly: H2A Formation-Assay (cell-based mechanistic assay, co-treatment with Nocodazole). To be noted: 16 h, read-out: Biological Assay 4.1: H2A Formation IC50.
Series [5] has as its system pre-induced phospho-histone 2A (kinase activity of Bub1). Briefly: H2A Abrogation-Assay (cell-based mechanistic assay, pre-treatment with Nocodazole). To be noted: Nocodazole 16 h, then test compound 1 h; read-out: Biological Assay 4:2: H2A Abrogation IC50. The text has this: Biological Assay 4.2: Abrogation-Assay
This assay measures the inhibition of histone 2A phosphorylation, which was induced by pre-treatment of the cells with Nocodazole, by a Bub1 kinase inhibitor.

For series [6], the target named is T1, (recombinant) catalytic domain of human Bub1 (amino acids 704-1085). Briefly: Equilibrium probe competition assay (TR-FRET kinase binding assay). To be noted: read-out: IC50 (Assay 5, probe competition). An excerpt:
Equilibrium Probe Competition Assay:
Bub1 binding affinity of compounds described in the present invention were quantified using a time-resolved fluorescence energy transfer (TR-FRET) kinase binding assay which measures displacement of the synthetic fluorescent probe 5-[({2-[2-({2-[1-(4-ethoxy-2,6-difluorobenzyl)-1H-indazol-3-yl]-4-(pyridin-4-ylamino)pyrimidin-5-yl}oxy)ethoxy]ethyl}carbamothioyl)amino]-2-(6-hydroxy-3-oxo-3H-xanthen-9-yl)benzoic acid (5-5-1) by the (recombinant) catalytic domain of human Bub1 (amino acids 704-1085). The enzyme was expressed in Hi5 insect cells with N-terminal 6×His/AviTag@ seqences, purified by affinity-(Ni-NTA) and size exclusion chromatography and site-specific biotinylated ex-vivo using a commercially available kit (Avidity).
In a typical assay 11 different concentrations of each compound (0.1 nM, 0.33 nM, 1.1 nM, 3.8 nM, 13 nM, 44 nM, ˜0.15 μM, ˜0.51 μM, ˜1.7 μM, 5.9 μM and 20 μM) were tested in duplicate within the same microtiter plate. To this end, 100-fold concentrated compound solutions (in DMSO) were made by serial dilution (1:3.4) of freshly prepared 2 mM stocks in a clear low volume 384-well source microtiter plate (Greiner Bio-One, Frickenhausen, Germany), from which 50 nl of compounds were transferred into a black low volume test microtiter plate from the same supplier. Subsequently 2 μL of a solution containing biotinylated Bub1 (the final concentration of Bub1 was adjusted depending on the activity of the enzyme lot in order to be within the linear dynamic range of the assay: typically ˜200 pM were used) and 1 nM Streptavidin Terbium Cryptate (Cisbio, No. 610SATLB) in aqueous assay buffer [50 mM Tris/HCl pH 7.5, 200 mM potassium chloride (KCl), 1.0 mM dithiothreitol (DTT), 0.1 mM sodium ortho-vanadate, 1% (v/v) glycerol, 0.01% (w/v) bovine serum albumine (BSA), 0.005% (v/v) Triton X-100 (Sigma), were added to the compounds in the test plate and the mixture was incubated for 15 min at 22′C to allow pre-equilibration of the putative enzyme-inhibitor complexes before the start of the probe competition reaction, which was initiated by the addition of 3 μL 1.67-fold concentrated solution (in assay buffer) of 5-5-1 (final concentration: 1.5 nM). The resulting mixture (5 μL final volume) was Incubated at 220 during 0, 15, 30, 60, 120, 240 and 1440 min. After each time point the resonance energy transfer from the Streptavidin Tb cryptate to the 3′,6′-dihydroxy-3H-spiro[2-benzofuran-1,9′-xanthen]-3-one moiety of 5-5-1 was measured in order to quantify the amount of fluorescent probe displaced by the test compounds. To this end, the fluorescence emissions at 520 nm and 490 nm after excitation at 330-350 nm were measured in a Pherastar FS TR-FRET plate reader, (BMG Lab technologies, Offenburg, Germany) and the ratio of the emissions (520 nm/490 nm) was taken as Indicator for the amount of Bub1/5-5-1 equilibrium complexes. The data were normalized using two sets of control wells for high-(=enzyme reaction without inhibitor=0%=Minimum inhibition) and low-(=all assay components without enzyme=100%=Maximum inhibition) Bub1 activity. IC50 values were calculated by fitting the normalized inhibition data to a 4-parameter logistic equation (Minimum, Maximum, IC50, Hill; Y=Max+(Min−Max)/(1+(X/IC50)Hill)).

Series [7] in a line: Stability in buffer at various pH values (HPLC detection). It is filed as physicochemical. As to the method:
Stability in Buffer at Various pH Values (HPLC Detection)
0.3 mg of the test compound was solved in 0.1 ml dimethylsulfoxide and 0.4 ml acetonitrile. For complete dissolution the HPLC vial with the sample solution was sonified for about 20 seconds. Then 1.0 ml of the respective buffer solution was added and the sample was again treated in the ultrasonic bath.
Buffer Solutions Used: • pH 4.0: Fluka buffer, Order No. 33643 (11.76 g citric acid, 2.57 g sodium chloride and 2.72 g sodium hydroxide)
pH 7.4: 90 g of sodium chloride, 13.61 g of potassium dihydrogen phosphate and 83.35 g of 1 M sodium hydroxide solution were made up to 1 L with Millipore water and then diluted 1:10.
10 μl portions of the sample solution were analysed by HPLC at different times (0 h, 1 h, 2 h, 4 h and 24 h) at 37° C. The peak areas in percentage were used for quantification.
Agilent 1100 with DAD (G1315B), binary pump (G1312A), autosampler (G1329A), column oven (G1316A), thermostat (G1330B); column: Kromasil 100 C18, 250 mm×4 mm, 5 μm; column temperature: 37° C.; eluent A: water+5 ml of perchloric acid/litre, eluent B: acetonitrile.
The ratios of the peak area (F) at different times in relation to the peak area at the starting point are shown in Table 3 for representative examples: […]

Where [8] appears, read: ATP 10 μM, 60 min reaction, pH 7.5, read-out: Biological Assay 1: Bub1 kinase assay median IC50.

For `CCOc1cc(F)c(Cn2nc(-c3ncc(OCCOCCNC(=S)Nc4ccc(-c5c6ccc(=O)cc-6oc6cc(O)ccc56)c(C(=O)O)c4)c(Nc4ccncc4)n3)c3ccccc32)c(F)c1` [Example 5-5-1, 5-[((2-[2-((2-[1-(4-ethoxy-2,6-difluorobenzyl)-1H-indazol-3-yl]-4-(pyridin-4-ylamino)pyrimidin-5-yl)oxy)ethoxy]ethyl)carbamothioyl)amino]-2-(6-hydroxy-3-oxo-3H-xanthen-9-yl)benzoic acid, reference compound], the IC50 came out at 0.021 µM in series [1] (setting [8]) and 0.0208 µM in series [1] (probe of the competition assay, read-out: inhibits the kinase activity of Bub1, IC50).

In the case of `CCOc1cc(F)c(Cn2nc(-c3ncc(OCCCO)c(Nc4ccncc4OCC(F)(F)F)n3)c3ccccc32)c(F)c1` [Example 2-1-22, 3-[(2-[1-(4-ethoxy-2,6-difluorobenzyl)-1H-indazol-3-yl]-4-{[3-(2,2,2-trifluoroethoxy)pyridin-4-yl]amino}pyrimidin-5-yl)oxy]propan-1-ol], the IC50 was 0.0057 µM in series [1] (setting [8]), 1.39 µM in series [2] and 0.18 µM in series [3].

As for `CCOc1cc(F)c(Cn2nc(-c3ncc(OCCCO)c(Nc4cc(NC(C)=O)ncc4C)n3)c3ccccc32)c(F)c1` [Example 2-1-12, N-[4-({2-[1-(4-ethoxy-2,6-difluorobenzyl)-1H-indazol-3-yl]-5-(3-hydroxypropoxy)pyrimidin-4-yl}amino)-5-methylpyridin-2-yl]acetamide], the IC50 in series [1] (setting [8]) stood at 0.035 µM.

Turning to `CC(=O)Nc1cc(Nc2nc(-c3nn(Cc4c(F)cc(OCC(F)(F)F)cc4F)c4ccccc34)ncc2OCCCO)ccn1` [Example 2-1-25, N-(4-{[2-{1-[2,6-difluoro-4-(2,2,2-trifluoroethoxy)benzyl]-1H-indazol-3-yl}-5-(3-hydroxypropoxy)pyrimidin-4-yl]amino}pyridin-2-yl)acetamide], the IC50 in series [1] (setting [8]) was found to be 0.019 µM; in series [2] it was 1.36 µM; in series [3], 0.2 µM.

On to `CCOc1cc(F)c(Cn2nc(-c3ncc(OCCO)c(Nc4ccncc4)n3)c3ccccc32)c(F)c1` [Example 5-6-1, 2-({2-[1-(4-ethoxy-2,6-difluorobenzyl)-1H-indazol-3-yl]-4-(pyridin-4-ylamino)pyrimidin-5-yl}oxy)ethanol, reference compound], for which the IC50 in series [3] stood at 1.4 µM; in series [4] it was 1.1 µM.

Consider `CCOc1cc(F)c(Cn2nc(-c3ncc(OCCCO)c(Nc4ccncc4C)n3)c3ccccc32)c(F)c1` [Example 2-1-2, 3-({2-[1-(4-ethoxy-2,6-difluorobenzyl)-1H-indazol-3-yl]-4-[(3-methylpyridin-4-yl)amino]pyrimidin-5-yl}oxy)propan-1-ol], for which the IC50 was determined as 0.01 µM in series [1] (setting [8]), 3.7 µM in series [2], 0.017 µM in series [5] and 0.031 µM in series [4].

As to `COCCOc1cc(F)c(Cn2nc(-c3ncc(OCCCO)c(Nc4ccncn4)n3)c3ccccc32)c(F)c1` [Example 2-1-27, 3{[2-{1-[2,6-difluoro-4-(2-methoxyethoxy)benzyl]-1H-indazol-3-yl}-4-(pyrimidin-4-ylamino)pyrimidin-5-yl]oxy}propan-1-ol], in series [1] (setting [8]), the IC50 stood at 0.004 µM.

For the molecule `CCOc1cc(F)c(Cn2nc(-c3ncc(OCCCOC(=O)[C@H](C)NC(=O)[C@H](N)CCCCN)c(Nc4ccnc(NC(C)=O)c4)n3)c3ccccc32)c(F)c1` [Example 4-1-3, 3-[(4-{[2-(acetylamino)pyridin-4-yl]amino}-2-[1-(4-ethoxy-2,6-difluorobenzyl)-1H-indazol-3-yl]pyrimidin-5-yl)oxy]propyl D-lysyl-L-alaninate, salt with trifiuoroaceticacid], the IC50 in series [6] (Time 15 min) was found to be 0.0011 µM; in series [6] (Time 30 min) it was 0.00065 µM; in series [6] (Time 60 min) it was 0.00042 µM; in series [6] (Time 90 min), 0.00027 µM; in series [6] (Time 120 min) it was 0.00025 µM; in series [6] (Time 240 min) it was 0.0002 µM. Also, the IC50 in series [6] (Time 1440 min) amounted to 0.00017 µM. In addition, in series [7] (Time 60 min, read-out: Recovery (Assay 6, prodrug stability)), the recovery at 60 min, 0.2 mg/mL is 75%. Moreover, in series [7] (Time 120 min, read-out: Recovery (Assay 6, prodrug stability)), the recovery at 120 min, 0.2 mg/mL is 56%. In series [7] (Time 240 min, read-out: Recovery (Assay 6, prodrug stability)), the recovery at 240 min, 0.2 mg/mL is 31%. The recovery at 1440 min, 0.2 mg/mL in series [7] (Time 1440 min, read-out: Recovery (Assay 6, prodrug stability)) stood at 0%. Besides, the “Stability pH4: % Test Compound after 4 h [F(t = 4 h) × 100/F(t = 0 h)]” value in series [7] (pH 4, 4 h, 37° C., prodrug remaining) is 100%. The “Stability pH7.4: % Test Compound after 4 h [F(t = 4 h) × 100/F(t = 0 h)]” value in series [7] (pH 7.4, 4 h, 37° C., prodrug remaining) stood at 31%.

Consider `CCOc1cc(F)c(Cn2nc(-c3ncc(OCCCO)c(Nc4cc(C)ncc4F)n3)c3ccccc32)c(F)c1` [Example 2-1-16, 3-({2-[1-(4-Ethoxy-2,6-difluorobenzyl)-1H-indazol-3-yl]-4-[(5-fluor-2-methylpyridin-4-yl)amino]pyrimidin-5-yl}oxy)propan-1-ol], for which the IC50 in series [1] (setting [8]) stood at 0.016 µM.

With `Cc1cc(Nc2nc(-c3nn(Cc4c(F)cc(OCC5CC5)cc4F)c4ccccc34)ncc2OCCCO)c(C)cn1` [Example 2-1-23, 3-[(2-{1-[4-(cyclopropylmethoxy)-2,6-difluorobenzyl]-1H-indazol-3-yl}-4-[(2,5-dimethylpyridin-4-yl)amino]pyrimidin-5-yl)oxy]propan-1-ol], the IC50 is 0.015 µM in series [1] (setting [8]), 2.32 µM in series [2] and 0.3 µM in series [3].

These data come from patent publication US20170305882A1, “BENZYL SUBSTITUTED INDAZOLES AS BUB1 KINASE INHIBITORS” (Bayer Pharma Aktiengesellschaft, priority 2014, published 2017).
